Source: PubChem BioAssay AID220 (DTP/NCI, 2004)
Values joined by “and” are separate entries in the source; they are usually repeats but may differ in a detail not shown here. Identical values can stand only once. Results filed as inconclusive are left out.

Test system: CD8F1 mice, subcutaneous mammary adenocarcinoma, T/C%
Experiment: NCI In Vivo Anticancer Drug Screen. Data for tumor model Mammary Adenocarcinoma CD8F1 (subcutaneous) in CD8F1
Settings: higher = larger tumour
Procedure: The antitumor activity of compounds was measured in mice bearing transplantable tumors. Survival or tumor size were measured and the results are expressed as the measurement made in the treated group (T) divided by the measurement made in the vehicle treated control group (C). The tumor model used in this assay is Mammary Adenocarcinoma CD8F1 (subcutaneous) in CD8F1

[1] = endpoint: median tumor weight change, dose: 250.0 mg/kg/injection, schedule: Q01DX001 (ip), vehicle: Klucel (hydroxypropylcellulose) (HPC)
[2] = endpoint: median tumor weight change, dose: 62.5 mg/kg/injection, schedule: Q01DX001 (ip), vehicle: saline with Tween-80
[3] = endpoint: median tumor weight change, dose: 125.0 mg/kg/injection, schedule: Q01DX001 (ip), vehicle: saline with Tween-80
[4] = endpoint: median tumor weight change, dose: 250.0 mg/kg/injection, schedule: Q01DX001 (ip), vehicle: saline with Tween-80
[5] = endpoint: median tumor weight change, dose: 100.0 mg/kg/injection, schedule: Q01DX001 (ip), vehicle: Klucel (hydroxypropylcellulose) (HPC)
[6] = endpoint: median tumor weight change, dose: 200.0 mg/kg/injection, schedule: Q01DX001 (ip), vehicle: Klucel (hydroxypropylcellulose) (HPC)
[7] = endpoint: median tumor weight (est.), dose: 12.5 mg/kg/injection, schedule: Q07DX005 (ip), vehicle: saline with Tween-80

## CN=C(NC#N)NCCSCc1nc[nH]c1C
[1]
  T/C: 57 % of control

## O=C1[C@H]2CCC[C@H]2[C@H]2CCC[C@@H]12
[2]
  T/C: 51 % of control
[3]
  T/C: 44 % of control
[4]
  T/C: 60 % of control
endpoint: median tumor weight change, dose: 500.0 mg/kg/injection, schedule: Q01DX001 (ip), vehicle: saline with Tween-80
  T/C: 35 % of control

## ClCCCN1CCN(CCCl)CC1
endpoint: median tumor weight change, dose: 10.0 mg/kg/injection, schedule: Q01DX001 (ip), vehicle: saline
  T/C: 92 % of control and 97 % of control
endpoint: median tumor weight change, dose: 14.4 mg/kg/injection, schedule: Q01DX001 (ip), vehicle: saline
  T/C: 88 % of control
endpoint: median tumor weight change, dose: 20.0 mg/kg/injection, schedule: Q01DX001 (ip), vehicle: saline
  T/C: 27 % of control and 52 % of control
endpoint: median tumor weight change, dose: 24.0 mg/kg/injection, schedule: Q01DX001 (ip), vehicle: saline
  T/C: 15 % of control

## CNC(=O)c1cccc2c(Nc3ccc(NS(C)(=O)=O)cc3OC)c3cccc(C)c3nc12
endpoint: median tumor weight change, dose: 60.0 mg/kg/injection, schedule: Q01DX001 (ip), vehicle: water
  T/C: 6 % of control
endpoint: median tumor weight change, dose: 62.5 mg/kg/injection, schedule: Q01DX001 (ip), vehicle: water
  T/C: -63 % of control
endpoint: median tumor weight change, dose: 120.0 mg/kg/injection, schedule: Q01DX001 (ip), vehicle: other
  T/C: -68 % of control

## ClC1=C(Cl)C(Cl)=C(Cl)C1=Cc1ccccc1
endpoint: median tumor weight change, dose: 31.0 mg/kg/injection, schedule: Q01DX001 (ip), vehicle: saline with Tween-80
  T/C: 100 % of control
endpoint: median tumor weight change, dose: 62.0 mg/kg/injection, schedule: Q01DX001 (ip), vehicle: saline with Tween-80
  T/C: 63 % of control
endpoint: median tumor weight change, dose: 150.0 mg/kg/injection, schedule: Q01DX001 (ip), vehicle: saline with Tween-80
  T/C: 33 % of control
endpoint: median tumor weight change, dose: 300.0 mg/kg/injection, schedule: Q01DX001 (ip), vehicle: saline with Tween-80
  T/C: 73 % of control

## C[C@]12C=CC(=O)C=C1CC[C@@H]1[C@@H]2[C@@H](O)C[C@@]2(C)[C@H]1CC[C@]2(O)C(=O)CO
[5]
  T/C: 111 % of control
[6]
  T/C: 67 % of control and 87 % of control and 90 % of control
endpoint: median tumor weight change, dose: 800.0 mg/kg/injection, schedule: Q01DX001 (ip), vehicle: Klucel (hydroxypropylcellulose) (HPC)
  T/C: 32 % of control and 38 % of control and 52 % of control
endpoint: median tumor weight change, dose: 1600.0 mg/kg/injection, schedule: Q01DX001 (ip), vehicle: Klucel (hydroxypropylcellulose) (HPC)
  T/C: 14 % of control

## Nc1c(C(=O)O)[nH]c(=O)[nH]c1=O
[7]
  T/C: 83 % of control

## CCCCCC1c2cc(O)ccc2OC1N1CCOCC1 (centres undefined)
[4]
  T/C: 204 % of control and 73 % of control

## ClC1C(Cl)C(Cl)C(Cl)C(Cl)C1Cl (centres undefined)
endpoint: median tumor weight change, dose: 62.5 mg/kg/injection, schedule: Q01DX001 (ip), vehicle: Klucel (hydroxypropylcellulose) (HPC)
  T/C: 169 % of control
endpoint: median tumor weight change, dose: 125.0 mg/kg/injection, schedule: Q01DX001 (ip), vehicle: Klucel (hydroxypropylcellulose) (HPC)
  T/C: 105 % of control
[1]
  T/C: 115 % of control
endpoint: median tumor weight change, dose: 500.0 mg/kg/injection, schedule: Q01DX001 (ip), vehicle: Klucel (hydroxypropylcellulose) (HPC)
  T/C: 64 % of control

## CCNC(C)(C)C(SSS)c1ccco1 (centres undefined)
endpoint: median tumor weight change, dose: 31.25 mg/kg/injection, schedule: Q01DX001 (ip), vehicle: saline with Tween-80
  T/C: 97 % of control
[2]
  T/C: 87 % of control
[3]
  T/C: 65 % of control
[4]
  T/C: 59 % of control

## Cc1nnc2ncccn12
endpoint: median tumor weight change, dose: 250.0 mg/kg/injection, schedule: Q01DX001 (ip), vehicle: saline
  T/C: 92 % of control

## CCSC(=O)N1c2ccc(OC)cc2C=CC1C#N (centres undefined)
[7]
  T/C: 93 % of control
endpoint: median tumor weight (est.), dose: 25.0 mg/kg/injection, schedule: Q07DX005 (ip), vehicle: saline with Tween-80
  T/C: 93 % of control
endpoint: median tumor weight (est.), dose: 50.0 mg/kg/injection, schedule: Q07DX005 (ip), vehicle: saline with Tween-80
  T/C: 69 % of control
endpoint: median tumor weight (est.), dose: 100.0 mg/kg/injection, schedule: Q07DX005 (ip), vehicle: saline with Tween-80
  T/C: 90 % of control
endpoint: median tumor weight (est.), dose: 225.0 mg/kg/injection, schedule: Q07DX005 (ip), vehicle: saline with Tween-80
  T/C: 59 % of control
endpoint: median tumor weight (est.), dose: 400.0 mg/kg/injection, schedule: Q07DX005 (ip), vehicle: saline with Tween-80
  T/C: 97 % of control
endpoint: median tumor weight (est.), dose: 450.0 mg/kg/injection, schedule: Q07DX005 (ip), vehicle: saline with Tween-80
  T/C: 95 % of control
endpoint: median tumor weight (est.), dose: 900.0 mg/kg/injection, schedule: Q07DX005 (ip), vehicle: saline with Tween-80
  T/C: 78 % of control

## CC(C)NCC(O)COc1cccc2ccccc12 (centres undefined)
endpoint: mean tumor weight, dose: 4.0 mg/kg/injection, schedule: Q07DX007 (ip), vehicle: Klucel (hydroxypropylcellulose) (HPC)
  T/C: 61 % of control
endpoint: mean tumor weight, dose: 8.0 mg/kg/injection, schedule: Q07DX007 (ip), vehicle: Klucel (hydroxypropylcellulose) (HPC)
  T/C: 92 % of control
endpoint: mean tumor weight, dose: 32.0 mg/kg/injection, schedule: Q07DX007 (ip), vehicle: Klucel (hydroxypropylcellulose) (HPC)
  T/C: 88 % of control
endpoint: mean tumor weight, dose: 64.0 mg/kg/injection, schedule: Q07DX007 (ip), vehicle: Klucel (hydroxypropylcellulose) (HPC)
  T/C: 43 % of control

## CC[PH+](CC)CC[S-].CC[PH+](CC)CC[S-].[Au+].[Au+]
[5]
  T/C: 29 % of control and 34 % of control
[6]
  T/C: 24 % of control

## CN(C)CCC(=O)C(=Cc1ccc(O)cc1)C(=O)CCN(C)C
endpoint: median tumor weight change, dose: 50.0 mg/kg/injection, schedule: Q01DX001 (ip), vehicle: suspension in saline
  T/C: 96 % of control
endpoint: median tumor weight change, dose: 62.5 mg/kg/injection, schedule: Q01DX001 (ip), vehicle: saline
  T/C: 90 % of control
endpoint: median tumor weight change, dose: 100.0 mg/kg/injection, schedule: Q01DX001 (ip), vehicle: suspension in saline
  T/C: 87 % of control
endpoint: median tumor weight change, dose: 125.0 mg/kg/injection, schedule: Q01DX001 (ip), vehicle: saline
  T/C: 62 % of control

## COc1ccc(C(=O)/C(Br)=C/C(=O)O)cc1
endpoint: mean tumor weight, dose: 8.0 mg/kg/injection, schedule: Q07DX004 (ip), vehicle: saline
  T/C: 69 % of control
endpoint: mean tumor weight, dose: 12.5 mg/kg/injection, schedule: Q01DX009 (ip), vehicle: saline
  T/C: 206 % of control and 122 % of control
endpoint: mean tumor weight, dose: 16.0 mg/kg/injection, schedule: Q07DX004 (ip), vehicle: saline
  T/C: 171 % of control
endpoint: mean tumor weight, dose: 25.0 mg/kg/injection, schedule: Q01DX009 (ip), vehicle: saline
  T/C: 241 % of control and 113 % of control
endpoint: mean tumor weight, dose: 25.0 mg/kg/injection, schedule: Q07DX006 (ip), vehicle: saline
  T/C: 190 % of control
endpoint: mean tumor weight, dose: 32.0 mg/kg/injection, schedule: Q07DX004 (ip), vehicle: saline
  T/C: 163 % of control
endpoint: mean tumor weight, dose: 50.0 mg/kg/injection, schedule: Q01DX009 (ip), vehicle: saline
  T/C: 156 % of control and 209 % of control
endpoint: mean tumor weight, dose: 50.0 mg/kg/injection, schedule: Q07DX006 (ip), vehicle: saline
  T/C: 86 % of control
endpoint: mean tumor weight, dose: 64.0 mg/kg/injection, schedule: Q07DX004 (ip), vehicle: saline
  T/C: 89 % of control
endpoint: median tumor weight (est.), dose: 4.0 mg/kg/injection, schedule: Q01DX005 (ip), vehicle: saline
  T/C: 159 % of control
endpoint: median tumor weight (est.), dose: 8.0 mg/kg/injection, schedule: Q04DX005 (ip), vehicle: saline
  T/C: 114 % of control
endpoint: median tumor weight (est.), dose: 8.0 mg/kg/injection, schedule: Q07DX005 (ip), vehicle: saline
  T/C: 120 % of control
endpoint: median tumor weight (est.), dose: 16.0 mg/kg/injection, schedule: Q01DX005 (ip), vehicle: saline
  T/C: 100 % of control
endpoint: median tumor weight (est.), dose: 16.0 mg/kg/injection, schedule: Q07DX005 (ip), vehicle: saline
  T/C: 120 % of control
endpoint: median tumor weight (est.), dose: 32.0 mg/kg/injection, schedule: Q01DX005 (ip), vehicle: saline
  T/C: 116 % of control
endpoint: median tumor weight (est.), dose: 32.0 mg/kg/injection, schedule: Q07DX005 (ip), vehicle: saline
  T/C: 50 % of control
endpoint: median tumor weight (est.), dose: 64.0 mg/kg/injection, schedule: Q01DX005 (ip), vehicle: saline
  T/C: 56 % of control
endpoint: median tumor weight (est.), dose: 64.0 mg/kg/injection, schedule: Q04DX005 (ip), vehicle: saline
  T/C: 219 % of control
endpoint: median tumor weight (est.), dose: 64.0 mg/kg/injection, schedule: Q07DX005 (ip), vehicle: saline
  T/C: 105 % of control

## O=C1C=CC(=O)N1c1ccc(Cl)cc1
endpoint: median tumor weight (est.), dose: 5.0 mg/kg/injection, schedule: Q07DX003 (ip), vehicle: Klucel (hydroxypropylcellulose) (HPC)
  T/C: 65 % of control
endpoint: median tumor weight (est.), dose: 20.0 mg/kg/injection, schedule: Q07DX003 (ip), vehicle: Klucel (hydroxypropylcellulose) (HPC)
  T/C: 109 % of control

## C=CC(C)NC(=S)NNC(=S)NC (centres undefined)
endpoint: median tumor weight change, dose: 62.5 mg/kg/injection, schedule: Q01DX001 (ip), vehicle: saline + alcohol
  T/C: 155 % of control
endpoint: median tumor weight change, dose: 125.0 mg/kg/injection, schedule: Q01DX001 (ip), vehicle: saline + alcohol
  T/C: 164 % of control
endpoint: median tumor weight change, dose: 250.0 mg/kg/injection, schedule: Q01DX001 (ip), vehicle: saline + alcohol
  T/C: 119 % of control
endpoint: median tumor weight change, dose: 500.0 mg/kg/injection, schedule: Q01DX001 (ip), vehicle: saline + alcohol
  T/C: 82 % of control

## ClCCCN1CCCCC1CCl (centres undefined)
endpoint: median tumor weight (est.), dose: 1.56 mg/kg/injection, schedule: Q07DX005 (ip), vehicle: saline
  T/C: 73 % of control
endpoint: median tumor weight (est.), dose: 3.12 mg/kg/injection, schedule: Q07DX005 (ip), vehicle: saline
  T/C: 123 % of control and 105 % of control
endpoint: median tumor weight (est.), dose: 6.25 mg/kg/injection, schedule: Q07DX005 (ip), vehicle: saline
  T/C: 71 % of control and 78 % of control
endpoint: median tumor weight (est.), dose: 25.0 mg/kg/injection, schedule: Q07DX005 (ip), vehicle: saline
  T/C: 53 % of control
endpoint: median tumor weight (est.), dose: 50.0 mg/kg/injection, schedule: Q07DX005 (ip), vehicle: saline
  T/C: 3 % of control
